{"source": "ChEMBL document CHEMBL4364302", "about": "“4-Aminoquinoline-based compounds as antileishmanial agents that inhibit the energy metabolism of Leishmania” (Eur J Med Chem, 2019)", "key": {"THP-1": {"test_system": "THP-1", "test": "Cytotoxicity against human THP1 cells assessed as cell viability measured after 72 hrs by MTT assay", "format": "cell-based", "settings": "THP-1, 72 h"}, "Leishmania infantum [1]": {"test_system": "Leishmania infantum", "test": "Antileishmanial activity against promastigote stage of Leishmania infantum MHOM/TN/80/IPT1 assessed as reduction in parasite viability measured after 72 hrs by MTT assay", "format": "functional, organism-based", "settings": "MHOM/TN/80/IPT1, 72 h"}, "[2]": {"test": "Selectivity index, ratio of IC50 for human HMEC1 cells to IC50 for intracellular amastigote stage of Leishmania infantum", "format": "toxicity, cell-based", "settings": "read-out: Ratio IC50"}, "Leishmania braziliensis [3]": {"test_system": "Leishmania braziliensis", "test": "Antileishmanial activity against promastigote stage of Leishmania braziliensis MHOM/IT/2006/ISS2848 assessed as reduction in parasite viability measured after 72 hrs by MTT assay", "format": "functional, organism-based", "settings": "MHOM/IT/2006/ISS2848, 72 h"}, "Leishmania infantum [4]": {"test_system": "Leishmania infantum", "test": "Antileishmanial activity against antimony resistant promastigote stage of Leishmania infantum LEM3323 isolate measured after 72 hrs by MTT assay", "format": "functional, organism-based"}, "Leishmania infantum [5]": {"test_system": "Leishmania infantum", "test": "Antileishmanial activity against miltefosine and paromomycin resistant promastigote stage of Leishmania infantum LEM2126 isolate measured after 72 hrs by MTT assay", "format": "functional, organism-based"}, "Leishmania infantum [6]": {"test_system": "Leishmania infantum", "test": "Antileishmanial activity against miltefosine resistant promastigote stage of Leishmania infantum LEM5159 isolate measured after 72 hrs by MTT assay", "format": "functional, organism-based"}, "Leishmania infantum [7]": {"test_system": "Leishmania infantum", "test": "Antileishmanial activity against intracellular amastigote stage of Leishmania infantum MHOM/TN/80/IPT1 assessed as reduction in parasite viability measured after 72 hrs by MTT assay", "format": "functional, organism-based", "settings": "MHOM/TN/80/IPT1, 72 h"}, "BMDM": {"test_system": "BMDM", "test": "Cytotoxicity against mouse BMDM cells assessed as cell viability measured after 72 hrs by MTT assay", "format": "cell-based"}, "Leishmania tropica [8]": {"test_system": "Leishmania tropica", "test": "Antileishmanial activity against promastigote stage of Leishmania tropica MHOM/IT/2012/ISS3130 assessed as reduction in parasite viability measured after 72 hrs by MTT assay", "format": "functional, organism-based", "settings": "MHOM/IT/2012/ISS3130, 72 h"}, "[9]": {"test": "Selectivity index, ratio of IC50 for human THP1 cells to IC50 for intracellular amastigote stage of Leishmania infantum LEM3049 isolate", "format": "toxicity, cell-based", "settings": "read-out: Ratio IC50"}, "[10]": {"test": "Selectivity index, ratio of IC50 for mouse BMDM cells to IC50 for intracellular amastigote stage of Leishmania infantum", "format": "toxicity, cell-based", "settings": "read-out: Ratio IC50"}, "Leishmania braziliensis [11]": {"test_system": "Leishmania braziliensis", "test": "Antileishmanial activity against intracellular amastigote stage of Leishmania braziliensis MHOM/IT/2006/ISS2848 assessed as reduction in parasite viability measured after 72 hrs by MTT assay", "format": "functional, organism-based", "settings": "MHOM/IT/2006/ISS2848, 72 h"}, "CFPAC-1": {"test_system": "CFPAC-1", "test": "Cytotoxicity against human CFPAC-1 cells assessed as cell viability measured after 72 hrs by MTT assay", "format": "cell-based", "settings": "CFPAC-1, 72 h"}, "Leishmania infantum [12]": {"test_system": "Leishmania infantum", "test": "Antileishmanial activity against antimony resistant intracellular amastigote stage of Leishmania infantum LEM3323 isolate measured after 72 hrs by MTT assay", "format": "functional, organism-based"}, "[13]": {"test": "Selectivity index, ratio of IC50 for human THP1 cells to IC50 for miltefosine resistant intracellular amastigote stage of Leishmania infantum LEM5159 isolate", "format": "toxicity, cell-based", "settings": "read-out: Ratio IC50"}, "[14]": {"test": "Selectivity index, ratio of IC50 for human THP1 cells to IC50 for intracellular amastigote stage of Leishmania infantum", "format": "toxicity, cell-based", "settings": "read-out: Ratio IC50"}, "Leishmania infantum [15]": {"test_system": "Leishmania infantum", "test": "Antileishmanial activity against miltefosine and paromomycin resistant intracellular amastigote stage of Leishmania infantum LEM2126 isolate measured after 72 hrs by MTT assay", "format": "functional, organism-based"}, "Leishmania infantum [16]": {"test_system": "Leishmania infantum", "test": "Antileishmanial activity against promastigote stage of Leishmania infantum LEM3049 isolate measured after 72 hrs by MTT assay", "format": "functional, organism-based"}, "HMEC-1": {"test_system": "HMEC-1", "test": "Cytotoxicity against human HMEC1 cells assessed as cell viability measured after 72 hrs by MTT assay", "format": "cell-based", "settings": "HMEC-1, 72 h"}, "[17]": {"test": "Selectivity index, ratio of IC50 for human CFPAC-1 cells to IC50 for intracellular amastigote stage of Leishmania infantum", "format": "toxicity, cell-based", "settings": "read-out: Ratio IC50"}, "[18]": {"test": "Selectivity index, ratio of IC50 for human THP1 cells to IC50 for miltefosine and paromomycin resistant intracellular amastigote stage of Leishmania infantum LEM2126 isolate", "format": "toxicity, cell-based", "settings": "read-out: Ratio IC50"}, "Leishmania tropica [19]": {"test_system": "Leishmania tropica", "test": "Antileishmanial activity against intracellular amastigote stage of Leishmania tropica MHOM/IT/2012/ISS3130 assessed as reduction in parasite viability measured after 72 hrs by MTT assay", "format": "functional, organism-based", "settings": "MHOM/IT/2012/ISS3130, 72 h"}, "Leishmania infantum [20]": {"test_system": "Leishmania infantum", "test": "Antileishmanial activity against intracellular amastigote stage of Leishmania infantum LEM3049 isolate measured after 72 hrs by MTT assay", "format": "functional, organism-based"}, "[21]": {"test": "Selectivity index, ratio of IC50 for human THP1 cells to IC50 for antimony resistant intracellular amastigote stage of Leishmania infantum LEM3323 isolate", "format": "toxicity, cell-based", "settings": "read-out: Ratio IC50"}, "Leishmania infantum [22]": {"test_system": "Leishmania infantum", "test": "Antileishmanial activity against miltefosine resistant intracellular amastigote stage of Leishmania infantum LEM5159 isolate measured after 72 hrs by MTT assay", "format": "functional, organism-based"}}, "data": [{"smiles": "C[C@@H]1[C@H](O)[C@@H](C)/C=C/C=C/C=C/C=C/C=C/C=C/C=C/[C@H](O[C@@H]2O[C@H](C)[C@@H](O)[C@H](N)[C@@H]2O)C[C@@H]2O[C@](O)(C[C@@H](O)C[C@@H](O)[C@H](O)CC[C@@H](O)C[C@@H](O)CC(=O)O[C@H]1C)C[C@H](O)[C@H]2C(=O)O", "note": "[AMPHOTERICIN B]", "values": [{"measurement": "IC50", "setting": "THP-1", "result": "> 10000", "unit": "nM"}, {"measurement": "IC50", "setting": "Leishmania infantum [1]", "result": "90 to 150", "unit": "nM"}, {"measurement": "selectivity ratio", "setting": "[2]", "result": "> 50"}, {"measurement": "IC50", "setting": "Leishmania braziliensis [3]", "result": 183, "unit": "nM"}, {"measurement": "IC50", "setting": "Leishmania infantum [4]", "result": 70, "unit": "nM"}, {"measurement": "IC50", "setting": "Leishmania infantum [5]", "result": 100, "unit": "nM"}, {"measurement": "IC50", "setting": "Leishmania infantum [6]", "result": 50, "unit": "nM"}, {"measurement": "IC50", "setting": "Leishmania infantum [7]", "result": 180, "unit": "nM"}, {"measurement": "IC50", "setting": "BMDM", "result": "> 10000", "unit": "nM"}, {"measurement": "IC50", "setting": "Leishmania tropica [8]; read-out: IC50", "result": 120, "unit": "nM"}, {"measurement": "selectivity ratio", "setting": "[9]", "result": 164}, {"measurement": "selectivity ratio", "setting": "[10]", "result": "> 50"}, {"measurement": "IC50", "setting": "Leishmania braziliensis [11]", "result": 200, "unit": "nM"}, {"measurement": "IC50", "setting": "CFPAC-1", "result": "> 10000", "unit": "nM"}, {"measurement": "IC50", "setting": "Leishmania infantum [12]", "result": 180, "unit": "nM"}, {"measurement": "selectivity ratio", "setting": "[13]", "result": 174}, {"measurement": "selectivity ratio", "setting": "[14]", "result": "> 50"}, {"measurement": "IC50", "setting": "Leishmania infantum [15]", "result": 160, "unit": "nM"}, {"measurement": "IC50", "setting": "Leishmania infantum [16]", "result": 60, "unit": "nM"}, {"measurement": "IC50", "setting": "HMEC-1", "result": "> 10000", "unit": "nM"}, {"measurement": "selectivity ratio", "setting": "[17]", "result": "> 50"}, {"measurement": "selectivity ratio", "setting": "[18]", "result": 174}, {"measurement": "IC50", "setting": "Leishmania tropica [19]", "result": 160, "unit": "nM"}, {"measurement": "IC50", "setting": "Leishmania infantum [20]", "result": 170, "unit": "nM"}, {"measurement": "selectivity ratio", "setting": "[21]", "result": 155}, {"measurement": "IC50", "setting": "Leishmania infantum [22]", "result": 160, "unit": "nM"}]}, {"smiles": "CCCCCCCCCCCCCCCCOP(=O)([O-])OCC[N+](C)(C)C", "note": "[MILTEFOSINE]", "values": [{"measurement": "IC50", "setting": "Leishmania infantum [1]", "result": 1430, "unit": "nM"}, {"measurement": "IC50", "setting": "Leishmania braziliensis [3]", "result": 7590, "unit": "nM"}, {"measurement": "IC50", "setting": "Leishmania tropica [8]", "result": 10400, "unit": "nM"}, {"measurement": "IC50", "setting": "Leishmania braziliensis [11]", "result": 890, "unit": "nM"}, {"measurement": "IC50", "setting": "Leishmania tropica [19]", "result": 1150, "unit": "nM"}]}, {"smiles": "NC[C@@H]1O[C@H](O[C@H]2[C@@H](O)[C@H](O[C@@H]3[C@@H](O)[C@H](N)C[C@H](N)[C@H]3O[C@H]3O[C@H](CO)[C@@H](O)[C@H](O)[C@H]3N)O[C@@H]2CO)[C@H](N)[C@@H](O)[C@@H]1O", "note": "[PAROMOMYCIN]", "values": [{"measurement": "IC50", "setting": "Leishmania infantum [1]", "result": 427000, "unit": "nM"}]}]}
